This passage reports MIC and Relative hydrolysis results from ChEMBL document CHEMBL1130477, “Synthesis and structure-activity relationships of some novel oxetane carbapenems” (1997).

In brackets after ≈: the same amount, converted by molar mass.

Assay [1] has as its system Acinetobacter calcoaceticus. Description: In vitro antibacterial activity against Acinetobacter calcoaceticus aceticus strain GC 756, expressed as MIC(minimum inhibitory concentration). The format is functional.
For the next assay, the system named is Citrobacter freundii. The assay can be described thus: In vitro antibacterial activity against Citrobacter freundii strain GC 2211, expressed as MIC(minimum inhibitory concentration). The format is functional.
A further assay concerns Enterococcus faecalis. The assay can be described thus: In vitro antibacterial activity against Enterococcus faecalis strain GC 842, expressed as MIC(minimum inhibitory concentration). The format is functional.
The test system of another assay is Enterobacter cloacae. The assay can be described thus: In vitro antibacterial activity against Enterobacter cloacae strain GC 2209, expressed as MIC(minimum inhibitory concentration). The format is functional.
For assay [2], the system named is Escherichia coli. Description: In vitro antibacterial activity against Escherichia coli strain ATCC 25922, expressed as MIC(minimum inhibitory concentration). The format is functional.
Assay [3] concerns Escherichia coli. Description: In vitro antibacterial activity against Escherichia coli strain GC 1792, expressed as MIC(minimum inhibitory concentration). The format is functional.
The test system of assay [4] is Escherichia coli. The assay can be described thus: In vitro antibacterial activity against Escherichia coli strain GC 2205, expressed as MIC(minimum inhibitory concentration). The format is functional.
Another assay relates to Morganella morganii. Description: In vitro antibacterial activity against Morganella morganii strain GC 2213, expressed as MIC(minimum inhibitory concentration). The format is functional.
Assay [5] deals with Pseudomonas aeruginosa. The assay can be described thus: In vitro antibacterial activity against Pseudomonas aeruginosa strain ATCC 27853, expressed as MIC(minimum inhibitory concentration). The format is functional.
Assay [6] relates to Pseudomonas aeruginosa. Description: In vitro antibacterial activity against Pseudomonas aeruginosa strain GC 1544, expressed as MIC(minimum inhibitory concentration). The format is functional.
Assay [7] has as its system Staphylococcus aureus. Description: In vitro antibacterial activity against Staphylococcus aureus strain ATCC 29213, expressed as MIC(minimum inhibitory concentration). The format is functional.
Assay [8] relates to Staphylococcus aureus. The assay can be described thus: In vitro antibacterial activity against Staphylococcus aureus strain GC 2220, expressed as MIC(minimum inhibitory concentration). The format is functional.
For assay [9], the system named is Stenotrophomonas maltophilia. The assay can be described thus: In vitro antibacterial activity against Xanthomonas maltophilia strain GC 562, expressed as MIC(minimum inhibitory concentration). The format is functional.
In a further assay the test system is Enterococcus faecium. Description: In vitro antibacterial activity against Enterococcus faecium strain GC 1182, expressed as MIC(minimum inhibitory concentration). The format is functional.
The target in assay [10] is T1, Dipeptidase 1 (Sus scrofa) (UniProt P22412).
T1 sequence (whole entry): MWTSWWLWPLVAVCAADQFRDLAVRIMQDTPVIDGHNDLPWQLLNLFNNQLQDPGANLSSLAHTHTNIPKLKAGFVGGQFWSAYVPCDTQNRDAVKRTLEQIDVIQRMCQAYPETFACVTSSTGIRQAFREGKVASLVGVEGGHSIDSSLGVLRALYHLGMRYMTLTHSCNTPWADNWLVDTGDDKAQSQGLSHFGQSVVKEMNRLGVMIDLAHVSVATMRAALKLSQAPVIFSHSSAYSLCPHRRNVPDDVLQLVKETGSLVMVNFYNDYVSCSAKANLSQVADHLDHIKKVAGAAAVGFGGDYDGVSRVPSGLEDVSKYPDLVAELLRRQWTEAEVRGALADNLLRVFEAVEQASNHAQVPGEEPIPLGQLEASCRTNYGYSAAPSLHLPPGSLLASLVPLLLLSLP
Description: (§1) Stability towards hog kidney dehydropeptidase (DHP) expressed as relative hydrolysis to imipenem.

Assay [11] deals with T1, Dipeptidase 1 (Sus scrofa). Described as §1. The format is functional, tissue-based.

What is called MIC is the lowest concentration found to suppress growth. In the case of `C[C@H]1C(S[C@H]2[C@@H](CN)O[C@@H]2CO)=C(C(=O)O)N2C(=O)[C@H]([C@@H](C)O)C12` (some centres not stated), the MIC in assay [1] was 4 µg/mL (≈ 11.2 µM); with Citrobacter freundii it was 1 µg/mL (≈ 2.79 µM); in the assay with Enterococcus faecalis it was 4 µg/mL (≈ 11.2 µM); in the assay with Enterobacter cloacae it was 0.25 µg/mL (≈ 0.698 µM); against Escherichia coli [2] it was 0.12 µg/mL (≈ 0.335 µM); against Escherichia coli [3], 0.25 µg/mL (≈ 0.698 µM). In addition, the MIC in the assay with Escherichia coli [4] worked out at 0.25 µg/mL (≈ 0.698 µM); in the assay on Morganella morganii it was 2 µg/mL (≈ 5.58 µM); against Pseudomonas aeruginosa [5] it was 16 µg/mL (≈ 44.6 µM); in the assay with Pseudomonas aeruginosa [6], 32 µg/mL (≈ 89.3 µM); against Staphylococcus aureus [7], 0.12 µg/mL (≈ 0.335 µM); against Staphylococcus aureus [8], 8 µg/mL (≈ 22.3 µM). For the same compound, the MIC (in assay [9]; in the assay on Enterococcus faecium) was above 128 µg/mL each time.

For `COC(=O)[C@H]1O[C@H](COS(=O)(=O)c2ccc(C)cc2)[C@H]1SC1=C(C(=O)[O-])N2C(=O)[C@H]([C@@H](C)O)[C@H]2[C@H]1C.[Na+]`, the MIC in assay [1] was above 128 µg/mL; in the assay with Citrobacter freundii it was above 128 µg/mL; with Enterococcus faecalis it was 64 µg/mL; against Enterobacter cloacae, above 128 µg/mL; with Escherichia coli [2], above 128 µg/mL; against Escherichia coli [3] it was above 128 µg/mL. The MIC against Escherichia coli [4] was 2 µg/mL; in the assay on Morganella morganii, above 128 µg/mL; with Pseudomonas aeruginosa [5], above 128 µg/mL; against Pseudomonas aeruginosa [6], above 128 µg/mL; in the assay with Staphylococcus aureus [7], 4 µg/mL; in the assay with Staphylococcus aureus [8], 64 µg/mL. Besides, the MIC (in assay [9]; against Enterococcus faecium) was above 128 µg/mL throughout. The same compound came in with a Relative hydrolysis in [10] below 1.

Regarding `C[C@H]1C(S[C@@H]2[C@@H](C)O[C@@H]2CN)=C(C(=O)[O-])N2C(=O)[C@H]([C@@H](C)O)C12.[Na+]` (some centres not stated), the MIC in assay [1] was 16 µg/mL; against Citrobacter freundii, 1 µg/mL; against Enterococcus faecalis it was 4 µg/mL; in the assay on Enterobacter cloacae, 0.5 µg/mL; with Escherichia coli [2], 0.12 µg/mL; in the assay with Escherichia coli [3] it was 0.12 µg/mL. The MIC against Escherichia coli [4] was determined as 0.25 µg/mL; in the assay with Morganella morganii, 4 µg/mL; against Pseudomonas aeruginosa [5] it was 64 µg/mL; with Pseudomonas aeruginosa [6], 128 µg/mL; with Staphylococcus aureus [7], 0.12 µg/mL; against Staphylococcus aureus [8], 8 µg/mL. The MIC (in assay [9]; in the assay with Enterococcus faecium) was above 128 µg/mL throughout.

As to `COC(=O)[C@H]1O[C@H](CN)[C@H]1SC1=C(C(=O)O)N2C(=O)[C@H]([C@@H](C)O)[C@H]2[C@H]1C`, the MIC in assay [1] was 16 µg/mL (≈ 41.4 µM); with Citrobacter freundii, 1 µg/mL (≈ 2.59 µM); against Enterococcus faecalis it was 32 µg/mL (≈ 82.8 µM); with Enterobacter cloacae, 0.25 µg/mL (≈ 0.647 µM); in the assay with Escherichia coli [2] it was 0.25 µg/mL (≈ 0.647 µM); with Escherichia coli [3] it was 0.5 µg/mL (≈ 1.29 µM). Besides, the MIC with Escherichia coli [4] is 0.5 µg/mL (≈ 1.29 µM); in the assay with Morganella morganii, 16 µg/mL (≈ 41.4 µM); with Pseudomonas aeruginosa [5] it was 128 µg/mL (≈ 331 µM); in the assay with Pseudomonas aeruginosa [6] it was above 128 µg/mL; in the assay on Staphylococcus aureus [7] it was 1 µg/mL (≈ 2.59 µM); with Staphylococcus aureus [8], 32 µg/mL (≈ 82.8 µM). The MIC (in assay [9]; in the assay on Enterococcus faecium) was above 128 µg/mL each time. Moreover, the Relative hydrolysis in assay [10] is below 1.

Regarding `CC1C(S[C@@H]2CCO[C@@H]2CN)=C(C(=O)O)N2C(=O)[C@H]([C@@H](C)O)[C@@H]12` (single isomer, unassigned), the MIC was 2 µg/mL (≈ 5.84 µM) in [1]; 0.12 µg/mL (≈ 0.35 µM) against Citrobacter freundii; 1 µg/mL (≈ 2.92 µM) against Enterococcus faecalis; below 0.06 µg/mL against Enterobacter cloacae; at most 0.06 µg/mL with Escherichia coli [2]; at most 0.06 µg/mL with Escherichia coli [3]. The minimal inhibitory concentration (MIC) against Escherichia coli [4] is at most 0.06 µg/mL; in the assay with Morganella morganii it was 0.5 µg/mL (≈ 1.46 µM); in the assay on Pseudomonas aeruginosa [5] it was 4 µg/mL (≈ 11.7 µM); in the assay on Pseudomonas aeruginosa [6], 16 µg/mL (≈ 46.7 µM); against Staphylococcus aureus [7], at most 0.06 µg/mL; in the assay with Staphylococcus aureus [8], 2 µg/mL (≈ 5.84 µM). Further, the MIC in assay [9] was above 128 µg/mL; in the assay on Enterococcus faecium, 64 µg/mL (≈ 187 µM). In assay [11], this compound showed a Relative hydrolysis of 8.5.

On to `COC(=O)[C@H]1O[C@H](CO)[C@H]1SC1=C(C(=O)[O-])N2C(=O)[C@H]([C@@H](C)O)[C@H]2[C@H]1C.[Na+]`, for which the MIC in assay [1] was 32 µg/mL; against Citrobacter freundii, 16 µg/mL; in the assay on Enterococcus faecalis it was 16 µg/mL; in the assay with Enterobacter cloacae, 4 µg/mL; against Escherichia coli [2] it was 0.5 µg/mL; against Escherichia coli [3] it was 1 µg/mL. Also, the MIC against Escherichia coli [4] was 0.25 µg/mL; against Morganella morganii, 4 µg/mL; in the assay on Pseudomonas aeruginosa [5], above 128 µg/mL; in the assay on Pseudomonas aeruginosa [6], above 128 µg/mL; in the assay with Staphylococcus aureus [7], 2 µg/mL; in the assay with Staphylococcus aureus [8] it was 32 µg/mL. For the same compound, the MIC (in assay [9]; against Enterococcus faecium) was above 128 µg/mL throughout. The compound also returned a Relative hydrolysis in assay [10] below 1.

Regarding `C[C@@H](O)[C@H]1C(=O)N2C(C(=O)O)=C(SCCNC=N)C[C@H]12` [IMIPENEM ANHYDROUS], the MIC in assay [1] is 0.5 µg/mL (≈ 1.67 µM); against Citrobacter freundii it was 0.5 µg/mL (≈ 1.67 µM); with Enterococcus faecalis, 1 µg/mL (≈ 3.34 µM); in the assay on Enterobacter cloacae, at most 0.06 µg/mL; against Escherichia coli [2], 0.12 µg/mL (≈ 0.401 µM); against Escherichia coli [3], 0.12 µg/mL (≈ 0.401 µM). In addition, the MIC is 0.12 µg/mL (≈ 0.401 µM) against Escherichia coli [4]; 2 µg/mL (≈ 6.68 µM) with Morganella morganii; 2 µg/mL (≈ 6.68 µM) against Pseudomonas aeruginosa [5]; 16 µg/mL (≈ 53.4 µM) against Pseudomonas aeruginosa [6]; at most 0.06 µg/mL against Staphylococcus aureus [7]; 1 µg/mL (≈ 3.34 µM) with Staphylococcus aureus [8]. The MIC in [9] is above 128 µg/mL; with Enterococcus faecium, 128 µg/mL (≈ 428 µM). Besides, the Relative hydrolysis in assay [10] is 100.

For the compound `C[C@@H](O)[C@H]1C(=O)N2C(C(=O)[O-])=C(S[C@H]3[C@@H](C(=O)N(C)C)O[C@@H]3CO)[C@H](C)[C@H]12.[Na+]`, the MIC in [1] was 32 µg/mL; against Citrobacter freundii, 8 µg/mL; in the assay on Enterococcus faecalis, 32 µg/mL; with Enterobacter cloacae, 2 µg/mL; in the assay with Escherichia coli [2], 0.5 µg/mL; against Escherichia coli [3], 1 µg/mL. Also, the MIC in the assay on Escherichia coli [4] is 0.5 µg/mL; against Morganella morganii, 4 µg/mL; with Pseudomonas aeruginosa [5], above 64 µg/mL; in the assay with Pseudomonas aeruginosa [6] it was above 64 µg/mL; with Staphylococcus aureus [7], 4 µg/mL; against Staphylococcus aureus [8], above 64 µg/mL. Also, the MIC (in assay [9]; against Enterococcus faecium) was above 64 µg/mL in each case.
